# Assay results from US4117108A, “Oral hygiene” (Noxell Corporation, priority 1976, dated 1978).
# Assays:
# [1] = system: plaque and pellicle formation; test: Observed plaque/pellicle retardation (general statements, test not specified at the place); settings: for plaque inhibition activity: various compositions with about 5% betaine, including (isostearic) 24% glycerin, 1% propylene glycol, 0.75% carboxymethyl cellulose, 69.25% water
# [2] = system: plaque and pellicle growth on extracted human teeth; test: Inhibition of plaque/pellicle redeposition on extracted human teeth brushed with the composition, then incubated with saliva (Example 1A procedure)
# Protocol: A set of three extracted human teeth without the roots is mounted on a plastic strip of about 1 inch × 3 inches. The teeth are then swabbed with human saliva using a sterile Dacron swab and allowed to dry for about 15 minutes. The strip is then placed in a petri dish and covered with about 200 ml of an aqueous solution of about 2% trypticase and about 4% sucrose. Each dish is then inoculated with an additional 1 ml of human saliva and then incubated at about 37° C for about 24 hours.
# Next, the set of teeth is removed from the media, dried, and then dipped into a 0.5% aqueous solution of FD & C RED No. 3 to visually disclose the plaque. The strip is then rinsed under tap water.
# The teeth are then brushed with an electric toothbrush […], […], until all of the red disclosed plaque is removed and are then rinsed.
# The teeth are then again swabbed with human saliva, placed in a petri dish covered with the trypticase-sucrose media, which is then inoculated with an additional 1 ml of saliva and incubated for about 24 hours at about 37° C. At the end of the 24 hours, the set of teeth is removed from the media, dried, and dipped into a 0.5% FD & C RED No. 3 solution for about 60 seconds to visually disclose the presence of plaque and is then rinsed under tap water.
# All of the above examples employed new sets of teeth or plastic strips and new brushes for the brushing, respectively. Any NaCl present in the composition is due to its presence in the available compositions of the fatty acid amido compounds.
# [3] = system: plaque and/or pellicle growth on polymethyl methacrylate strips; test: Inhibition of plaque/pellicle growth on polymethyl methacrylate strips brushed with the composition (Example 16 procedure); parameters: species or system human saliva; settings: second 24 h
# Acute oral LD50 study = settings: in vivo, rat, palmitic amido betaine purified according to Example 10
# Protocol: An acute oral LD50 study was done on rats for Schercotaine PAB in mature albino rats.
# Palmitic amido betaine purified according to Example 10 is also tested according to the above procedure.
# [4] = system: pellicle and plaque growth on extracted human teeth and plastic strip; test: Inhibition of plaque/pellicle formation on extracted human teeth (mounted on polymethylmethacrylate strip) with composition added to the media (Example 20 procedure); parameters: species or system human saliva / human teeth; settings: for pellicle and plaque formation/inhibition on the teeth: 0.1 ml of 1% by weight in distilled water added to about 200 ml media, second 24 h at about 37° C
# Protocol: A set of three extracted human teeth without the roots is mounted on a polymethylmethacrylate plastic strip of about 1 inch × 3 inches. A drop of human saliva is applied to each tooth and allowed to dry. The set of teeth is then placed in a petri dish and covered with about 200 ml of an aqueous solution of about 2% trypticase and about 4% sucrose. The dish is then inoculated with an additional 1 ml of human saliva and then incubated at about 37° C for about 24 hours.
# Next, the set of teeth is removed from the media, rinsed, and then dipped into a 0.5% aqueous solution of FD & C RED No. 3 to visually disclose the plaque.
# The teeth are then brushed with water using an electric toothbrush fitted with a soft nylon brush until all of the red disclosed plaque and/or pellicle is removed.
# The teeth are then swabbed with human saliva, placed in a petri dish covered with about 200 ml of the trypticase-sucrose media and about 0.1 ml of a composition containing 1% by weight DL-N-carboxymethylmethyl-N,N-dimethyl-N-(3-palmitamidopropyl) ammonium betaine and the remainder being distilled water. The contents of the dish are then inoculated with an additional 1 ml of saliva and incubated for about 24 hours at about 37° C. At the end of the 24 hours, the set of teeth is removed from the media, dried, and dipped into a 0.5% FE & C RED No. 3 solution for about 60 seconds to visually disclose the presence of pellicle and plaque and is then rinsed under tap water.
# [5] = system: pellicle and plaque growth on extracted human teeth and plastic strip; test: as above; parameters: species or system human saliva / human teeth; settings: 0.1 ml of 1% by weight in propylene glycol; second 24 h
compound,measurement,setting,value
CCCCCCCCCCCCCCCC(=O)NCCC[N+](C)(C)CC(=O)[O-] [palmitic amido betaine],retardation of plaque formation,"[1]; about 2.5% betaine, about 10% silica, about 56% sorbitol, up to 5% NaCl, water, with rinsing",did not retard plaque formation
same,retardation of plaque formation,"[1]; about 2.5% or less betaine, about 10% ethyl alcohol, up to about 5% NaCl, water, with rinsing",did not retard plaque formation
same,retardation of plaque formation,"[1]; about 5% betaine, about 8% silica, about 50.5% sorbitol, about 36.5% water",marginally effective in that sometimes the composition exhibited retardation of plaque while other times the composition did not
same,retardation of plaque formation,"[1]; about 5% betaine, about 95% water",retarded plaque formation
same,prevention of plaque formation,"[1]; same compositions (2.5% or less with ethyl alcohol; 2.5% with silica/sorbitol), no rinsing after treatment",prevented the formation of plaque
same,plaque growth on teeth / inhibition of plaque redeposition,"[2]; Example 1A: about 25% palmitic amido betaine, 2-5% NaCl, remainder water (Schercotaine PAB), brushed and rinsed, second 24 h at 37° C",effectively inhibits the redeposition of dental plaque on the teeth
same,pellicle and plaque inhibition,"[2]; Example 2: about 20% betaine, 10% ethyl alcohol, 70% water, second 24 h",provides pellicle and plaque inhibition although not as great as the preparation employed in Example 1A
same,prevention of pellicle and plaque formation,"[2]; Example 4: about 10% betaine, 8% silica gel (Syloid 244), 36.4% sorbitol, up to 5% NaCl, water, second 24 h",complete prevention of pellicle and plaque formation on the teeth
same,pellicle or plaque formation,"[2]; Example 5: about 2.5% betaine, 10% ethyl alcohol, up to 5% NaCl, water, brushed and dipped, not rinsed, second 24 h",no pellicle or plaque formation on the set of teeth
same,pellicle and plaque inhibition,"[2]; Example 8: about 10 parts betaine, 35.7 sorbitol, 8 silica QUSO G-30, 1 propylene glycol, 45 water, second 24 h",complete pellicle and plaque inhibition on the teeth
same,inhibition of pellicle and plaque growth,"[2]; Example 9: about 10 parts betaine, 35.7 sorbitol, 8 silica QUSO G-32, 1 propylene glycol, 45 water, second 24 h",complete inhibition of pellicle and plaque growth
same,inhibition of plaque and pellicle growth,"[2]; Example 10: about 10% purified betaine, 90% water, 24 h",complete inhibition of plaque and pellicle growth on the teeth
same,inhibition of plaque and pellicle growth,"[2]; Example 11: about 5% purified betaine, 95% water, 24 h",partial inhibition of plaque and pellicle growth on the teeth
same,inhibition of pellicle and plaque growth,"[2]; Example 12: about 30 parts betaine in paste with sorbitol, glycerin, carboxymethyl cellulose, Syloid 244, hydrated alumina, pH about 6.4, second 24 h",complete inhibition of pellicle and plaque growth on the teeth
same,plaque and pellicle inhibition,"[2]; Example 13: about 25 parts purified betaine in paste with sorbitol, carboxymethyl cellulose, hydrated alumina, Syloid 244, glycerin, second 24 h",complete plaque and pellicle inhibition on the teeth
same,inhibition of plaque and pellicle growth,"[2]; Example 14: about 30 parts purified betaine in paste with Pluronic F-68, sorbitol, carboxymethyl cellulose, hydrated alumina, Syloid 244, second 24 h",complete inhibition of plaque and pellicle growth on the teeth
same,prevention of plaque and/or pellicle growth,[3]; Example 17B: Denta Fresh ingredients with Tegobetaine C replaced by 15% palmitic amido betaine,does not prevent plaque and/or pellicle growth
same,LD50,Acute oral LD50 study,2400 mg/kg
"CCCCCCCC/C=C\CCCCCCCC(=O)NCCC[N+](C)(C)C(C)C(=O)[O-] (racemic) [DL-N-carboxymethylmethyl-N,N-dimethyl-N-(3-oleylamidopropyl) ammonium betaine]",pellicle and plaque formation/inhibition on the teeth,[4],inhibits plaque and pellicle formation on the teeth
isostearic amido betaine,plaque inhibition,"[1]; about 5% betaine, similar composition with about 0.75% hydroxyethyl cellulose in place of carboxymethyl cellulose",retarded plaque formation and exhibited moderate plaque inhibition
same,plaque inhibition activity,[1],did not exhibit plaque inhibition activity
same,plaque and pellicle inhibition,"[2]; Example 3: about 35% betaine, 2-5% NaCl, remainder water (Schercotaine IAB), second 24 h",good plaque and pellicle inhibition
same,pellicle and plaque inhibition,"[2]; Example 6: about 5% betaine, 24% glycerin, 0.75% hydroxyethyl cellulose, 1% propylene glycol, up to 5% NaCl, water, second 24 h",moderate pellicle and plaque inhibition
same,plaque and pellicle on the teeth,"[2]; Example 15: about 14% betaine, 86% water, second 24 h",no plaque and pellicle are present on the teeth
same,prevention of plaque and/or pellicle growth,[3]; Example 17C: Denta Fresh ingredients with Tegobetaine C replaced by 15% isostearic amido betaine,does not prevent plaque and/or pellicle growth
"CCCCCCCCCCCCCCCCCC(=O)NCCC[N+](C)(C)C(C)C(=O)[O-] (racemic) [DL-N-carboxymethylmethyl-N,N-dimethyl-N-(3-stearamidopropyl) ammonium betaine]",pellicle and plaque formation/inhibition on the teeth,[4],slight activity against plaque and pellicle formation on the teeth
"CCCCCCCC/C=C\CCCCCCCC(=O)NCCC[N+](C)(C)CCS(=O)(=O)[O-] [2-[N,N-dimethyl-N-(3-oleylamidopropyl)-amino] ethanesulfobetaine]",activity against plaque and pellicle formation on the teeth,[5],exhibits activity against plaque and pellicle formation on the teeth
same,plaque growth on teeth and plastic,[5],Very slight plaque growth is observed on teeth and plastic
"CCCCCCCCCCCCCCCC(=O)NCCC[N+](C)(C)CCC(=O)[O-] [N-carboxyethyl-N,N-dimethyl-N-(3-palmitamidopropyl) ammonium betaine]",pellicle and plaque formation/inhibition on the teeth,[4],complete inhibition of plaque and pellicle formation on the teeth
same,plaque and/or pellicle on the plastic strip,"[4]; 0.1 ml of 1% by weight in distilled water, second 24 h",very slight plaque and/or pellicle on the plastic strip
"CCCCCCCC/C=C\CCCCCCCC(=O)NCCC[N+](C)(C)CCC(=O)[O-] [N-carboxyethyl-N,N-dimethyl-N-(3-oleylamidopropyl) ammonium betaine]",pellicle and plaque formation/inhibition on the teeth,[4],inhibits plaque and pellicle formation on the teeth
"CCCCCCCCCCCCCCCCCC(=O)NCCC[N+](C)(C)CCC(=O)[O-] [N-carboxyethyl-N,N-dimethyl-N-(3-stearamidopropyl) ammonium betaine]",pellicle and plaque formation/inhibition on the teeth,[4],inhibits plaque and pellicle formation on the teeth
CCCCCCCCCCCCCCCCCC(=O)NCCC[N+](C)(C)CC(=O)[O-] [stearic amido betaine],plaque inhibition activity,[1],did not exhibit plaque inhibition activity
CCCCCCCC/C=C\CCCCCCCC(=O)NCCC[N+](C)(C)CC(=O)[O-] [oleic amido betaine],inhibition of pellicle and plaque growth,"[2]; Example 7: about 25% betaine, up to 5% NaCl, water (Schercotaine OAB), second 24 h",almost complete inhibition of pellicle and plaque growth on the teeth
"CCCCCCCCCCCCCCCC(=O)NCCC[N+](C)(C)C(C)C(=O)[O-] (racemic) [DL-N-carboxymethylmethyl-N,N-dimethyl-N-(3-palmitamidopropyl) ammonium betaine]",pellicle and plaque formation/inhibition on the teeth,[4],No pellicle and plaque growth are observed on the teeth
"CCCCCCCCCCCCCCCC(=O)NCCC[N+](C)(C)CCS(=O)(=O)[O-] [2-[N,N-dimethyl-N-(3-palmitamidopropyl)-amino] ethanesulfobetaine]",activity against plaque and pellicle formation on the teeth,[5],exhibits activity against plaque and pellicle formation on the teeth
same,plaque growth on teeth and plastic,[5],Only slight plaque growth is observed on the teeth and plastic
